{
  "source": "ChEMBL document CHEMBL1201862",
  "about": "“PubChem BioAssay data set” (2004)",
  "experiment_in_all_cases": "growth of human tumour cells (NCI), 48 h",
  "key": {"Hs-578T": {"system": "Hs-578T"}, "SF-268": {"system": "SF-268"}, "DMS-273": {"system": "DMS-273"}, "SW-620": {"system": "SW-620"}, "HOP-92": {"system": "HOP-92"}, "OVCAR-8": {"system": "OVCAR-8"}, "NCI-H460": {"system": "NCI-H460"}, "SK-MEL-5": {"system": "SK-MEL-5"}, "SNB-19": {"system": "SNB-19"}, "ACHN": {"system": "ACHN"}, "OVCAR-3": {"system": "OVCAR-3"}, "M19-MEL": {"system": "M19-MEL"}, "DLD-1": {"system": "DLD-1"}, "A498": {"system": "A498"}, "CCRF-CEM": {"system": "CCRF-CEM"}, "HL-60": {"system": "HL-60"}, "HCT-116": {"system": "HCT-116"}, "MCF7": {"system": "MCF7"}, "TK-10": {"system": "TK-10"}, "OVCAR-5": {"system": "OVCAR-5"}, "SNB-78": {"system": "SNB-78"}, "SNB-75": {"system": "SNB-75"}, "NCI-H226": {"system": "NCI-H226"}, "COLO 205": {"system": "COLO 205"}, "NCI/ADR-RES": {"system": "NCI/ADR-RES"}, "SN12C": {"system": "SN12C"}, "UO-31": {"system": "UO-31"}, "HOP-62": {"system": "HOP-62"}, "KM12": {"system": "KM12"}, "RXF 393": {"system": "RXF 393"}, "IGROV-1": {"system": "IGROV-1"}, "PC-3": {"system": "PC-3"}, "KM-20L2": {"system": "KM-20L2"}, "HOP-18": {"system": "HOP-18"}, "SR": {"system": "SR"}, "UACC-257": {"system": "UACC-257"}, "A549": {"system": "A549"}, "SK-MEL-28": {"system": "SK-MEL-28"}, "HCC 2998": {"system": "HCC 2998"}, "MOLT-4": {"system": "MOLT-4"}, "EKVX": {"system": "EKVX"}, "UACC-62": {"system": "UACC-62"}, "M14": {"system": "M14"}, "SK-MEL-2": {"system": "SK-MEL-2"}, "SK-OV-3": {"system": "SK-OV-3"}, "LXFL 529": {"system": "LXFL 529"}, "HT-29": {"system": "HT-29"}, "NCI-H23": {"system": "NCI-H23"}, "LOX IMVI": {"system": "LOX IMVI"}, "K562": {"system": "K562"}, "786-0": {"system": "786-0"}, "DU-145": {"system": "DU-145"}, "U-251": {"system": "U-251"}, "CAKI-1": {"system": "CAKI-1"}, "SF-539": {"system": "SF-539"}, "BT-549": {"system": "BT-549"}, "OVCAR-4": {"system": "OVCAR-4"}, "HCT-15": {"system": "HCT-15"}, "NCI-H522": {"system": "NCI-H522"}, "MDA-N": {"system": "MDA-N"}, "MDA-MB-231": {"system": "MDA-MB-231"}, "SF-295": {"system": "SF-295"}, "RPMI-8226": {"system": "RPMI-8226"}, "RXF 631": {"system": "RXF 631"}, "MDA-MB-435": {"system": "MDA-MB-435"}, "Malme-3M": {"system": "Malme-3M"}, "T47D": {"system": "T47D"}},
  "note": "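Method: 48-hour compound exposure of cells in 96-well plates, five concentrations, linear interpolation of endpoints. Here, GI50 denotes the concentration required for 50% inhibition of growth.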 Activity calls are given as the source filed them. Rule as the data show it: active = GI50 up to about 1.1 µM and inactive = higher.",
  "data": [
    {"smiles": "O=C1c2ccccc2C(=O)c2c1ccc1c3ccccc3n(-c3ccccc3)c21", "values": [
      {"measurement": "GI50", "setting": "Hs-578T", "value": "15 µM (inactive)"},
      {"measurement": "GI50", "setting": "SF-268", "value": "23 µM (inactive)"},
      {"measurement": "GI50", "setting": "DMS-273", "value": "18.6 µM (inactive)"},
      {"measurement": "GI50", "setting": "SW-620", "value": "15.8 µM (inactive)"},
      {"measurement": "GI50", "setting": "HOP-92", "value": "4.84 µM (inactive)"},
      {"measurement": "GI50", "setting": "OVCAR-8", "value": "27.2 µM (inactive)"},
      {"measurement": "GI50", "setting": "NCI-H460", "value": "27.2 µM (inactive)"},
      {"measurement": "GI50", "setting": "SK-MEL-5", "value": "16.1 µM (inactive)"},
      {"measurement": "GI50", "setting": "SNB-19", "value": "75.5 µM (inactive)"},
      {"measurement": "GI50", "setting": "ACHN", "value": "17.3 µM (inactive)"},
      {"measurement": "GI50", "setting": "OVCAR-3", "value": "19.5 µM (inactive)"},
      {"measurement": "GI50", "setting": "M19-MEL", "value": "18.8 µM (inactive)"},
      {"measurement": "GI50", "setting": "DLD-1", "value": "17.1 µM (inactive)"},
      {"measurement": "GI50", "setting": "A498", "value": "46 µM (inactive)"},
      {"measurement": "GI50", "setting": "CCRF-CEM", "value": "2.85 µM (inactive)"},
      {"measurement": "GI50", "setting": "HL-60", "value": "2.03 µM (inactive)"},
      {"measurement": "GI50", "setting": "HCT-116", "value": "19.7 µM (inactive)"},
      {"measurement": "GI50", "setting": "MCF7", "value": "16 µM (inactive)"},
      {"measurement": "GI50", "setting": "TK-10", "value": "40.8 µM (inactive)"},
      {"measurement": "GI50", "setting": "OVCAR-5", "value": "27 µM (inactive)"},
      {"measurement": "GI50", "setting": "SNB-78", "value": "21.1 µM (inactive)"},
      {"measurement": "GI50", "setting": "SNB-75", "value": "18.3 µM (inactive)"},
      {"measurement": "GI50", "setting": "NCI-H226", "value": "26.1 µM (inactive)"},
      {"measurement": "GI50", "setting": "COLO 205", "value": "16.9 µM (inactive)"},
      {"measurement": "GI50", "setting": "NCI/ADR-RES", "value": "39.7 µM (inactive)"},
      {"measurement": "GI50", "setting": "SN12C", "value": "17.8 µM (inactive)"},
      {"measurement": "GI50", "setting": "UO-31", "value": "21.3 µM (inactive)"},
      {"measurement": "GI50", "setting": "HOP-62", "value": "49.5 µM (inactive)"},
      {"measurement": "GI50", "setting": "KM12", "value": "29.2 µM (inactive)"},
      {"measurement": "GI50", "setting": "RXF 393", "value": "14.1 µM (inactive)"},
      {"measurement": "GI50", "setting": "IGROV-1", "value": "25.4 µM (inactive)"},
      {"measurement": "GI50", "setting": "PC-3", "value": "28.1 µM (inactive)"},
      {"measurement": "GI50", "setting": "KM-20L2", "value": "21.5 µM (inactive)"},
      {"measurement": "GI50", "setting": "HOP-18", "value": "14.5 µM (inactive)"},
      {"measurement": "GI50", "setting": "SR", "value": "5.89 µM (inactive)"},
      {"measurement": "GI50", "setting": "UACC-257", "value": "20.7 µM (inactive)"},
      {"measurement": "GI50", "setting": "A549", "value": "27.7 µM (inactive)"},
      {"measurement": "GI50", "setting": "SK-MEL-28", "value": "17.9 µM (inactive)"},
      {"measurement": "GI50", "setting": "HCC 2998", "value": "46.6 µM (inactive)"},
      {"measurement": "GI50", "setting": "MOLT-4", "value": "2.3 µM (inactive)"},
      {"measurement": "GI50", "setting": "EKVX", "value": "41.3 µM (inactive)"},
      {"measurement": "GI50", "setting": "UACC-62", "value": "14.7 µM (inactive)"},
      {"measurement": "GI50", "setting": "M14", "value": "12.4 µM (inactive)"},
      {"measurement": "GI50", "setting": "SK-MEL-2", "value": "25.7 µM (inactive)"},
      {"measurement": "GI50", "setting": "SK-OV-3", "value": "> 100 µM (inactive)"},
      {"measurement": "GI50", "setting": "LXFL 529", "value": "16.8 µM (inactive)"},
      {"measurement": "GI50", "setting": "HT-29", "value": "16.7 µM (inactive)"},
      {"measurement": "GI50", "setting": "NCI-H23", "value": "15.4 µM (inactive)"},
      {"measurement": "GI50", "setting": "LOX IMVI", "value": "14.5 µM (inactive)"},
      {"measurement": "GI50", "setting": "K562", "value": "6.61 µM (inactive)"},
      {"measurement": "GI50", "setting": "786-0", "value": "21.3 µM (inactive)"},
      {"measurement": "GI50", "setting": "DU-145", "value": "18.7 µM (inactive)"},
      {"measurement": "GI50", "setting": "U-251", "value": "32.7 µM (inactive)"},
      {"measurement": "GI50", "setting": "CAKI-1", "value": "18.2 µM (inactive)"},
      {"measurement": "GI50", "setting": "SF-539", "value": "19.1 µM (inactive)"},
      {"measurement": "GI50", "setting": "BT-549", "value": "25.7 µM (inactive)"},
      {"measurement": "GI50", "setting": "OVCAR-4", "value": "18.8 µM (inactive)"},
      {"measurement": "GI50", "setting": "HCT-15", "value": 16.1, "unit": "µM"},
      {"measurement": "GI50", "setting": "NCI-H522", "value": "15.4 µM (inactive)"},
      {"measurement": "GI50", "setting": "MDA-N", "value": "25 µM (inactive)"},
      {"measurement": "GI50", "setting": "MDA-MB-231", "value": "22.4 µM (inactive)"},
      {"measurement": "GI50", "setting": "SF-295", "value": "18.2 µM (inactive)"},
      {"measurement": "GI50", "setting": "RPMI-8226", "value": "7.24 µM (inactive)"},
      {"measurement": "GI50", "setting": "RXF 631", "value": "7.94 µM (inactive)"},
      {"measurement": "GI50", "setting": "MDA-MB-435", "value": "9.31 µM (inactive)"},
      {"measurement": "GI50", "setting": "Malme-3M", "value": "28.7 µM (inactive)"},
      {"measurement": "GI50", "setting": "T47D", "value": "14.6 µM (inactive)"}
    ]}
  ]
}
